Measured values taken from patent US20250018019A1, “TREATMENT OF INTERFERON DRIVEN INFLAMMATION” (The Provost, Fellows, Foundation Scholars and the other …, priority 2023, published 2025).
Structures can show the parent of a compound that is named as a salt.

What was measured:
BMDMs [1] = test: Western blotting of signalling proteins in BMDMs; assay type: cell-based, mouse; settings: for IFN-β-induced STAT1 and JAK1 phosphorylation / upstream kinases (AKT, JNK, ERK and p38), total and phospho levels: BMDMs pre-treated with DMSO, FHIN1 or DMF
Description: (§1) All compounds used DMSO as a vehicle except for 4-hydroxy tamoxifen (EtOH), NAC (PBS), and AOAA for tracing experiments (Media). LPS was used at a concentration of 100 ng/ml for indicated timepoints (2, 3, 4, 6, 8, 24, 48 h). FHIN1 (10 or 20 μM), MMF (50 or 100 μM), DMF (25 μM), AOAA (5 mM), oligomycin (10 μM), CCCP (50 μM) NAC (1 mM), and IMT1 (10 μM) pre-treatments were performed for 3 h prior the addition of LPS. Cells were treated with valinomycin (10 nM) 15 mins before LPS stimulation. Anti-CD210 or IgG control (10 μg/ml) antibodies were added to cells 1 h prior to LPS stimulation. Recombinant mouse IL-10 protein (100 ng/ml) was added to cells at the same time as LPS. Cells were treated with IFN-B1 (220 ng/ml) for 3 h. Cells were treated with C-178 (1 μM) 1 h prior to LPS stimulation or transfection with 2′3′-cGAMP (1.5 μg/ml) for 4 hrs to achieve cGAS-STING activation. Cells were treated with ODN 2088 (1 μM) for 1 hr prior to LPS stimulation or transfection with CPG ODN 1826 (1.5 μg/ml) to achieve TLR9 activation. 3 different timepoints of 4-hydroxy tamoxifen (TAM) (600 nM or 2 μM) or EtOH treatment were performed-these are specified in the individual figure legends. For ‘48 h’ treatments EtOH/TAM was added on day 5 of 6 during the BMDM differentiation protocol. On day 6 they were plated with EtOH/TAM (left overnight) and treated the following day. For ‘72 h’ treatments EtOH/TAM was added on day […] of 6 during the BMDM differentiation protocol. On day 6 they were plated with EtOH/TAM (left overnight) and treated the following day. For ‘96 h’ treatments EtOH/TAM was added on day […] of 6 during the BMDM differentiation protocol. On day 6 they were plated with EtOH/TAM and treated 2 days later.
Supernatant was removed from cells following stimulation and lysates were harvested in 30-50 μl lysis buffer (0.125 M Tris pH 6.8, 10% glycerol, 0.02% SDS, 5% DTT) Lysates were subsequently heated to 95° C. for 5 mins to denature proteins. SDS-PAGE was used to resolve proteins by molecular weight. Samples were boiled at 95° C. for 5 mins prior to loading into a 5% stacking gel. The percentage resolving gel depended on the molecular weight of the given protein. The Bio-Rad gel running system was used to resolve proteins and the Bio-Rad wet transfer system was used for the electrophoretic transfer of proteins onto PVDF membrane. Following transfer, the membrane was incubated in milk powder (5% in TBST) for 1 hr and subsequently incubated in primary antibody rolling overnight at 4° C. Primary antibodies targeting phospho-proteins were diluted in BSA (5% in TBST) as opposed to milk. The membrane was incubated for 1 hr with secondary antibody (diluted in 5% milk powder) at room temperature. Prior to visualisation, the membrane was immersed in WesternBright ECL Spray (Advansta). Protein visualisation took place on a ChemiDoc MPTM Imaging System (Bio-Rad), and both chemiluminescent and white light images were taken. Images were analysed using Image Lab 6.0.1 (Bio-Rad).

BMDMs [2] = test: Flow cytometry, CellROX and TMRM staining; assay type: cell-based, mouse; settings: LPS 4 h; for mitochondrial membrane potential (MMP), TMRM staining: BMDMs pre-treated, oligomycin 10 μM, CCCP 50 μM, valinomycin 10 nM, MMF 50 or 100 μM
Description: as §1
Cells were plated in 12-well plates and treated as desired. CellROX Green (5 μM, Thermo Fisher) or TMRM (20 nM, Thermo Fisher) was added to cells 30 mins prior to end of cell treatments. Cells were washed once in PBS and scraped into 200 μl FACS buffer (2 mM EDTA, 0.5% FCS in PBS). Acquisition of samples was performed on a BD Accuri C6 flow cytometer. The gating strategy used for all flow cytometry experiments consisted of debris exclusion by FSC-A vs SSC-A analysis and subsequent doublet exclusion by FSC-A vs FSC-H analysis. A sample gating strategy is provided in Supplementary FIG. 2. 10,000 cells was acquired per condition. Mean fluorescence intensity (MFI) was calculated for all cells in each condition using FlowJo v10.

| SMILES | LPS-induced p65 phosphorylation (BMDMs [1]; BMDMs pre-treated) | IFN-β-induced STAT1 and JAK1 phosphorylation (BMDMs [1]) | upstream kinases (AKT, JNK, ERK and p38), total and phospho levels (BMDMs [1]) | mitochondrial membrane potential (MMP), TMRM staining (BMDMs [2]) | LPS-induced IL-1β expression (IL-1β levels) (BMDMs [1]; BMDMs pre-treated) | LPS-induced TRAF3 levels (BMDMs [1]; BMDMs pre-treated, LPS 4 h) | TBK1 phosphorylation (BMDMs [1]; BMDMs pre-treated, LPS 4 h) | STAT3 phosphorylation (BMDMs [1]; BMDMs pre-treated, co-treated with recombinant IL-10 100 ng/ml, LPS 4 h) | reactive oxygen species (ROS) production (CellROX MFI) (BMDMs [2]; BMDMs pre-treated 3 h) |
| --- | --- | --- | --- | --- | --- | --- | --- | --- | --- |
| COC(=O)/C=C/C(=O)OC [DMF, dimethyl fumarate] | modestly augment | limited | did not observe changes | no effect |  |  |  |  |  |
| CCOC(=O)[C@@]12CCCC=C1N(Cc1ccc(-c3ccccc3)cc1)C(=O)[C@H]2CC(=O)NC [FHIN1, Fumarate hydratase-IN-1] | modestly augment | limited | did not observe changes | significantly increased staining | not increased | not increased | increased | failed to impair | increased |
